Test results reported in patent US20260240869A1, “ANTIPSEUDOMONAL FUSIDIC ACID COMPOUNDS” (priority 2022, published 2026).
Converted amounts (≈) assume the structure as drawn. Like-named read-outs stand apart in the source and are kept apart here.

How the values were obtained:
[1] = system: tolC EC; settings: retrospective literature analysis (Table 6); cited from earlier work
[2] = system: WT PA; settings: retrospective literature analysis (Table 6); cited from earlier work
[3] = system: PA efflux KO; settings: retrospective literature analysis (Table 6); cited from earlier work
[4] = system: WT EC; settings: retrospective literature analysis (Table 6); cited from earlier work
[5] = system: P. aeruginosa PA14; test: MIC, P. aeruginosa PA14; type: cell-based, Pseudomonas aeruginosa; settings: for MIC: Pseudomonas aeruginosa
Method: (§1) Antimicrobial Susceptibility Tests. Susceptibility testing was performed in biological triplicate, using the microdilution broth method as outlined by the Clinical and Laboratory Standards Institute. Bacteria were cultured with cation-adjusted Meuller-Hinton broth (Sigma-Aldrich; catalogue number: 90922) or Luria-Bertani (LB) broth (Lennox) in round-bottom 96-well plates (Corning; catalogue number: 3788).

[6] = system: P. aeruginosa PA1280; test: MIC, P. aeruginosa PA1280; type: cell-based, Pseudomonas aeruginosa; settings: for MIC: Pseudomonas aeruginosa
Method: as §1

[7] = system: P. aeruginosa PAΔ6; test: MIC, efflux pump knockout strain PAΔ6; type: cell-based, Pseudomonas aeruginosa
Method: as §1

[8] = system: P. aeruginosa PAO1; test: MIC, CLSI broth microdilution, P. aeruginosa PAO1; type: cell-based, Pseudomonas aeruginosa; settings: for MIC: Pseudomonas aeruginosa
Method: as §1

[9] = system: P. aeruginosa PAΔ6; test: LC-MS/MS whole-cell accumulation assay, PAΔ6; type: cell-based, Pseudomonas aeruginosa; settings: FIG. 1c
Method: (§2) Accumulation Assay. The accumulation assay was performed in triplicate in batches of ten samples, with each batch containing tetracycline or ciprofloxacin as a positive control. P. aeruginosa PAO1, PAO1 A6, PA14, PA14 A40, and PA1280, and E. coli MG1655 were used in these experiments. For each replicate, 2.5 mL (E. coli) or 5 mL (P. aeruginosa) of an overnight culture was diluted into 250 mL of fresh Luria-Bertani broth (Lennox) or Tryptic Soy Broth (TSB) and grown at 37° C. with shaking to an optical density (OD600) of 0.55-0.60. The bacteria were pelleted at 3220 r.c.f. for 10 min at 4° C., and the supernatant was discarded. The pellets were resuspended in 40 mL of phosphate buffered saline (PBS) and pelleted as before, and the supernatant was discarded. The pellets were resuspended in 8.8 mL of fresh PBS and aliquoted into ten, 1.5 mL Eppendorf tubes (875 μL each). The number of colony-forming units (CFUs) was determined by a calibration curve. The samples were equilibrated at 37° C. with shaking for 5 min; compound was added (final concentration=50 μM), and then the samples were incubated at 37° C. with shaking for either 10 min. These time points were short enough to minimize metabolic and growth changes (no changes in OD600 or CFU count observed). After incubation, 800 μL of the cultures was carefully layered on 700 μL of silicone oil (9:1 AR20/Sigma High Temperature, cooled to −78° C.). Bacteria were pelleted through the oil by centrifuging at 13 000 r.c.f. for 2 min at room temperature (with the supernatant remaining above the oil); the supernatant and oil were then removed by pipetting. To lyse the samples, each pellet was dissolved in […] of water, and then, they were subjected to three (E. coli) or four (P. aeruginosa) freeze-thaw cycles of 3 min in liquid nitrogen followed by 3 min in a water bath at 65° C. P. aeruginosa samples were then treated with 50 µM DNase and RNase and incubated at 37° C. for 15 minutes. The lysates were pelleted at 13 000 r.c.f. for 2 min at room temperature, and the supernatant was collected ([…]). The debris was resuspended in 100 μL of methanol and pelleted as before. The supernatants were removed and combined with the previous supernatants collected. Finally, the remaining debris was removed by centrifuging at 20 000 r.c.f. for 10 min at room temperature. Supernatants were analyzed by LC-MS/MS.
(§3) Samples were analyzed with the 5500 QTRAP LC/MS/MS system (AB Sciex) with a 1200 series HPLC system (Agilent Technologies) including a degasser, an autosampler, and a binary pump. Liquid chromatography separation was performed on an Agilent SB-Aq column (4.6×50 mm, 5 μm) (Agilent Technologies) with mobile phase A (0.1% formic acid in water) and mobile phase B (0.1% formic acid in acetonitrile). The flow rate was 0.3 mL/min. The linear gradient was as follows: 0-3 min, 100% mobile phase A; 10-15 min, 2% mobile phase A; 15.5-21 min, 100% mobile phase A. The autosampler was set at 5° C. The injection volume was 15 μL. Mass spectra were acquired with both positive electrospray ionization at the ion spray voltage of 5500 V and negative electrospray ionization at the ion spray voltage of −4500 V. The source temperature was 450° C. The curtain gas, ion source gas 1, and ion source gas 2 were 33, 50, and 65, respectively. Multiple reaction monitoring was used to quantify the metabolites. Power analysis was not used to determine the number of replicates. Error bars represent the standard error of the mean of three biological replicates. The statistical significance of the accumulation was determined using a two sample Welch's t test (one-tailed test, assuming unequal variance) relative to the negative controls. All compounds evaluated in the biological assays were >95% pure.

[10] = system: P. aeruginosa PAO1; test: LC-MS/MS whole-cell accumulation assay, P. aeruginosa PAO1; type: cell-based, Pseudomonas aeruginosa
Method: as §2, §3
MBN assay. Assays measuring permeabilization by polymyxin B nonapeptide (PMBN) were performed as above, with the addition of 8 μg/mL PMBN immediately before the compound of interest was added.

[11] = system: S. aureus ATCC 29213; test: MIC, S. aureus ATCC 29213; type: cell-based; settings: Staphylococcus aureus, ATCC29213; Table 9; read-out: MIC S. aureus ATCC 29213
Method: as §1

[12] = system: E. coli MG1655; test: MIC, E. coli MG1655; type: cell-based; settings: Escherichia coli, MG1655; Table 9; read-out: MIC E. coli MG1655
Method: as §1

[13] = PA14, MH broth (Table 4), read-out: PA14 MIC
[14] = PA1280, MH broth (Table 4), read-out: PA1280 MIC
[15] = WT P. aeruginosa PAO1, MH broth (Table 1), read-out: PAO1 MIC

For `Cc1ccc2c(C)c3c(c(O)c2c1O)C(=O)[C@]1(O)C(=O)C(C(N)=O)=C(O)[C@H](N)[C@@H]1C3` [CDCHD], the “tolC EC MIC” value [1] is listed as 0.25 µg/mL and the “WT PA MIC” value [2] is listed as 1 µg/mL.
In the case of `Cc1c(N2CC[C@@H]([C@H](C)N)C2)c(F)cc2c(CO)cc(=O)n(C3CC3)c12` [Compound 11], the “PA efflux KO MIC” value [3] is listed as 4 µg/mL, the “tolC EC MIC” value [1] is listed as 0.25 µg/mL and the “WT PA MIC” value [2] is listed as 16 µg/mL. The “WT EC MIC” value [4] was 16 µg/mL.
In the case of `CC(=O)C1=C(O)[C@H](N)[C@@H]2Cc3c(c(O)c4c(O)c(C)ccc4c3C)C(=O)[C@]2(O)C1=O` [CHD], the “tolC EC MIC” value [1] is given as 0.5 µg/mL and the “WT PA MIC” value [2] is given as 16 µg/mL.
In the case of `CN[C@H](CC(C)C)C(=O)N[C@H]1C(=O)N[C@@H](CC(N)=O)C(=O)N[C@H]2C(=O)N[C@H]3C(=O)N[C@H](C(=O)N[C@H](C(=O)O)c4cc(O)cc(O)c4-c4cc3ccc4O)[C@H](O)c3ccc(c(Cl)c3)Oc3cc2cc(c3O[C@@H]2O[C@H](CO)[C@@H](O)[C@H](O)[C@H]2O[C@H]2C[C@](C)(N)[C@H](O)[C@H](C)O2)Oc2ccc(cc2Cl)[C@H]1O` [Vancomycin], the MIC ([5]; PA14, read-out: PA14 MIC) is reported as greater than 512 µg/mL, the MIC ([6]; PA1280, read-out: PA1280 MIC) is reported as greater than 512 µg/mL and the Fold change ([7]; MIC ratio WT PAO1 / PAΔ6 (Table 2)) is reported as 1. For the same molecule, the “PAΔ6 MIC” value ([7]; efflux pump KO strain, MH or LB broth (Table 2)) was greater than 512 µg/mL, the “PAO1 MIC” value ([8]; MH broth (Table 4)) was greater than 512 µg/mL and the MIC ([8]; PAO1, read-out: PAO1 MIC) was greater than 512 µg/mL. The MIC ([8]; PAO1, read-out: WT MIC) was greater than 512 µg/mL and the “change of accumulation in efflux pump knockout PAΔ6 versus WT PAO1” value [9] was “no change in accumulation”.
In the case of `CN(C)c1cc(NC(=O)CNC(C)(C)C)c(O)c2c1C[C@H]1C[C@H]3[C@H](N(C)C)C(O)=C(C(N)=O)C(=O)[C@@]3(O)C(O)=C1C2=O` [Tigecycline], the “PA efflux KO MIC” value [3] is listed as 0.125 µg/mL, the MIC [5, 13] is listed as 2 µg/mL (≈ 3.41 µM) and the MIC [6, 14] is listed as 16 µg/mL (≈ 27.3 µM). For the same molecule, the “tolC EC MIC” value [1] was 0.125 µg/mL, the “PAO1 MIC” value ([8]; MH broth (Table 4)) was 1 µg/mL and the MIC [8, 15] was 1 µg/mL (≈ 1.71 µM). For the same molecule, the “WT PA MIC” value [2] was 1 µg/mL, the “WT EC MIC” value [4] was 0.5 µg/mL and the “accumulation relative to tetracycline” value ([10]; FIG. 1a) was “accumulates to a higher extent than tetracycline”.
In the case of `CN(C)[C@@H]1C(=O)C(C(N)=O)=C(O)[C@@]2(O)C(=O)C3=C(O)c4c(O)cccc4[C@@](C)(O)[C@H]3C[C@@H]12` [Tetracycline], the “PA efflux KO MIC” value [3] is listed as 0.25 µg/mL, the “PA14 MIC” value ([5]; MH broth (Table 4)) is listed as 8 µg/mL and the “PA1280 MIC” value ([6]; MH broth (Table 4)) is listed as 32 µg/mL. For the same molecule, the “PAΔ6 MIC” value ([7]; MH or LB broth (Table 7)) was 0.25 µg/mL, the “Fold change (MIC)” value ([7]; WT MIC / PAΔ6 MIC (Table 7)) was 64 and the “tolC EC MIC” value [1] was 0.25 µg/mL. The “PAO1 MIC” value ([8]; MH broth (Table 4)) was 16 µg/mL, the “PAO1 MIC” value ([8]; WT P. aeruginosa PAO1, MH broth (Table 1)) was 16 µg/mL and the “WT MIC” value ([8]; WT P. aeruginosa PAO1, MH or LB broth (Table 7)) was 16 µg/mL. The “WT PA MIC” value [2] was 16 µg/mL, the “WT EC MIC” value [4] was 1 µg/mL and the “WT Accum” value ([10]; WT PAO1, ± s.e.m. (Table 7)) was 452 ± 5 nmol/10^12 CFUs.
With `CC(=O)O[C@H]1C[C@@]2(C)[C@@H](C[C@@H](OC(C)=O)[C@H]3[C@@]4(C)CC[C@@H](OC(C)=O)[C@@H](C)[C@@H]4CC[C@@]32C)/C1=C(\CCC=C(C)C)C(=O)O/N=C(\N)CNCCCNCCCNCCCN` [FA prodrug-diacetate] the MIC [11] was 16 µg/mL (≈ 19 µM), the MIC [12] was 16 µg/mL (≈ 19 µM) and the MIC ([8]; PAO1, Table 9, read-out: MIC P. aeruginosa PAO1) was 32 µg/mL (≈ 38 µM).
For `CO[C@@H]1[C@@H](OC(N)=O)[C@@H](O)[C@H](Oc2ccc3c(O)c(NC(=O)c4ccc(O)c(CC=C(C)C)c4)c(=O)oc3c2C)OC1(C)C` [Novobiocin], the MIC [5, 13] was greater than 512 µg/mL, the MIC [6, 14] was greater than 512 µg/mL and the “PAO1 MIC” value ([8]; MH broth (Table 4)) was greater than 512 µg/mL. The MIC [8, 15] was greater than 512 µg/mL, the “PAO1 + PMBN MIC” value ([8]; co-treatment of 8 μg/mL of PMBN, MH broth) was 1 µg/mL and the “change of accumulation upon membrane permeabilization” value ([10]; treatment with PMBN, FIG. 1b) was “significant increase in accumulation”.
For `CCNc1cc(F)cc2c1[nH]c1ncc(-c3cnc(OC)nc3)c(-n3cc(CN)c(C(F)(F)F)n3)c12` [Compound 17r], the “WT PA MIC” value [2] is given as 1.3 µg/mL and the “WT EC MIC” value [4] is given as 0.31 µg/mL.
In the case of `Cc1c(N2CC[C@@H]([C@H](C)N)C2)c(F)cc2c(CN)cc(=O)n(C3CC3)c12` [Compound 10], the “PA efflux KO MIC” value [3] is given as 0.5 µg/mL, the “tolC EC MIC” value [1] is given as 0.06 µg/mL and the “WT PA MIC” value [2] is given as 2 µg/mL. For the same molecule, the “WT EC MIC” value [4] was 1 µg/mL.
For `C[C@@H](O)[C@H]1C(=O)N2C(C(=O)O)=C(S[C@@H]3CN[C@H](C(=O)N(C)C)C3)[C@H](C)[C@H]12` [Meropenem], the MIC [5, 13] was 0.5 µg/mL (≈ 1.3 µM), the MIC [6, 14] was 0.5 µg/mL (≈ 1.3 µM) and the “PAO1 MIC” value ([8]; MH broth (Table 4)) was 0.25 µg/mL. For the same molecule, the MIC [8, 15] was 0.25 µg/mL (≈ 0.652 µM) and the “accumulation in PAO1 (in words)” value ([10]; FIG. 1a / FIG. 5) was “minimal accumulation”.
In the case of `Cc1nc(-c2ccc(C(C)(C)C)cc2)ncc1C(=O)N[C@@H](CCN)C(=O)N(C)[C@@H]1C(=O)N[C@@H](C)C(=O)N[C@H](C(=O)NCC#N)Cc2ccc(OCCN)c(c2)-c2cc1ccc2OCCN` [Compound G0775], the “tolC EC MIC” value [1] is listed as 0.063 µg/mL, the “WT PA MIC” value [2] is listed as 2 µg/mL and the “WT EC MIC” value [4] is listed as 0.125 µg/mL.
`CC(=O)O[C@H]1C[C@@]2(C)[C@@H](C[C@@H](OC(C)=O)[C@H]3[C@@]4(C)CC[C@@H](OC(C)=O)[C@@H](C)[C@@H]4CC[C@@]32C)/C1=C(\CCC=C(C)C)C(=O)O` [FA diacetate] gave an MIC [11] of 64 µg/mL and an MIC [12] greater than 512 µg/mL.
In the case of `CC(=O)NC[C@H]1CN(c2ccc(N3CCOCC3)c(F)c2)C(=O)O1` [Linezolid], the MIC [5, 13] is reported as greater than 512 µg/mL, the MIC [6, 14] is reported as greater than 512 µg/mL and the “PAO1 MIC” value ([8]; MH broth (Table 4)) is reported as greater than 512 µg/mL. The MIC [8, 15] was greater than 512 µg/mL.
